Test results taken from patent US20110009437A1, “CARBOXAMIDE-HETEROARYL DERIVATIVES FOR THE TREATMENT OF DIABETES” (MERCK PATENT GESELLSCHAFT MIT BESCHRANKTER HAFTUNG, priority 2008, published 2011).

Molecular target: T1, Glucokinase (Homo sapiens, UniProt P35557)
T1 sequence (P35557 1-465): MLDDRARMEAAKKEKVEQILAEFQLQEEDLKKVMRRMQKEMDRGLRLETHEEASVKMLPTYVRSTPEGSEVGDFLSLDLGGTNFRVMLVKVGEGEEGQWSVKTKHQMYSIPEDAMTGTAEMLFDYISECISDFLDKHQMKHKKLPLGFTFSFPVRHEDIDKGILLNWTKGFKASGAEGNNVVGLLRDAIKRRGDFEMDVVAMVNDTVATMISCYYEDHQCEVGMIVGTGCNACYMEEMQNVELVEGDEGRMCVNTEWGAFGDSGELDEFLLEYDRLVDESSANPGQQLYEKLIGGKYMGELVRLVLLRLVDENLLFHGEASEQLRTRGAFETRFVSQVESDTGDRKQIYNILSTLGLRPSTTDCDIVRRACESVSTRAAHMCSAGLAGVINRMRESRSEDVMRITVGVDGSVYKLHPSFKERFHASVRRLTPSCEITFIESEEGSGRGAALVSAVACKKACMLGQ
Assay: Glucokinase Activation Screening Assay (coupled enzyme assay with PK/LDH)
Format: biochemical
Conditions: human GK enzyme
Description: GK activity (human or rat enzyme) is measured by a coupled enzyme assay using pyruvate kinase (PK) and lactate dehydrogenase (LDH) as coupling enzymes. GK activity is calculated from the decline in NADH monitored photometrically with a microtiter plate (MTP) reader at 340 nm. For screening purposes, the GK assay is routinely run in a 384-MTP format, in a total volume of 33 μl/well. 10 μl of the ATP-regeneration solution (in HEPES-buffer*, pH 7.0, 6.73 U/ml pyruvate kinase, 6.8 U/ml lactate dehydrogenase) and 10 μl of the glucokinase-/glucose solution (15 μg/ml, 6.6 mM glucose in HEPES-buffer*, pH 7.0; the concentration of the glucose stock-solution was 660 mM in Millipore H2O) were mixed together with […] of a 10% DMSO solution (in HEPES-buffer*, pH 7.0) containing 3.3-fold the amounts of the compounds to achieve final compound concentrations in the range between 1 nM to 30 μM (sometimes 300 μM) in the assay solution (s. below). The solutions were mixed for 5 sec, and after a centrifugation at 243×g for 5 min, the solutions were preincubated for 25 min at room temperature.
The reaction was started by the addition of 10 μl of the NADH-/ATP-solution (4.29 mM NADH, 4.95 mM ATP, in HEPES-buffer*). The MTP was shaken for 5 sec., and then, the absorbance at 340 nm was monitored continuously in a MTP-reader (TECAN Spectro fluor plus) for the next 27 min (with a MTP-cycling time of 199 sec.). The final concentrations of the various components were as follows: 49.5 mM Hepes, pH 7.0, 1.49 mM PEP,1,3 mM NADH, 49.5 mM KCl, 4.96 mM MgCl2, 1.5 mM Mg-ATP, 1.98 mM DTT, 2.04 U/ml pyruvate kinase, 2.06 U/ml lactate-dehydrogenase, 0.91% DMSO, 0.15 μg/well glucokinase, and test compounds in the range between 1 nM and […] The change in the optical density (ΔOD340 nm) in the presence of the compound was expressed relative to the ΔOD340 nm, ctrl of the control incubation (in the presence of 2 mM glucose and 0.91% DMSO), taking into account the optical density of the blank sample (incubation in the absence of 2 mM glucose). For the determination of the half maximal effective concentration (EC50), the %-Ctrl-values were plotted in a semi-logarithmic graph against the conc. of the compound of interest. The data points were fitted to a sigmoid curve function (f(x)=((%-Ctrlmax−%-Ctrlmin)/(1−(EC50/x**^n(Hill)))+%-Ctrlmin)) by a non-linear regression analysis.
*Hepes-buffer (50 mM Hepes, pH 7.0, 5 mM MgCl2, 50 mM KCl, 1.5 mM PEP, 0.1% BSA). DTT was added to the Hepes-buffer from a 200× stock solution (in Millipore H2O) freshly each day. The final concentration of DTT in the Hepes-buffer is 2 mM.

fold activation (human) | SMILES
3.4 fold | COCCN(C)c1cc(C(=O)Nc2ccn(C)n2)cc(Oc2ccccc2)n1 [B6, 2-[(2-Methoxy-ethyl)-methyl-amino]-N-(1-methyl-1H-pyrazol-3-yl)-6-phenoxy-isonicotinamide]
1.3 fold | COCC(C)Oc1cc(OC(C)COC)nc(C(=O)Nc2ccn(C)n2)n1 (stereo not drawn) [B7, 4,6-Bis-(2-methoxy-1-methyl-ethoxy)-pyrimidine-2-carboxylic acid (1-methyl-1H-pyrazol-3-yl)-amide]

The remaining lines, values behind:

SMILES | fold activation (human)
CN(C)c1cc(C(=O)Nc2ccn(Cc3cccnc3)n2)cc(Oc2ccccc2)n1 [B2, 2-Dimethylamino-6-phenoxy-N-(1-pyridin-3-ylmethyl-1H-pyrazol-3-yl)-isonicotinamide] | 3.3 fold
COCCN(C)c1cc(C(=O)Nc2ccn(Cc3cccnc3)n2)cc(Oc2ccccc2)n1 [B4, 2-[(2-Methoxy-ethyl)-methyl-amino]-6-phenoxy-N-(1-pyridin-3-ylmethyl-1H-pyrazol-3-yl)-isonicotinamide] | 1.8 fold
Cn1ccc(NC(=O)c2cc(Cl)nc(Oc3ccccc3)c2)n1 [B5, 2-Chloro-N-(1-methyl-1H-pyrazol-3-yl)-6-phenoxy-isonicotinamide] | 1.3 fold
CN(Cc1ccccc1)c1cc(C(=O)Nc2ccn(C)n2)cc(Oc2ccccc2)n1 [B8, 2-(Benzyl-methyl-amino)-N-(1-methyl-1H-pyrazol-3-yl)-6-phenoxy-isonicotinamide] | 1.4 fold
